Assay results from patent US10814010B2, “FOXC2 inhibitor and methods of use thereof” (The Board of Regents of The University of Texas System, priority 2018, dated 2020).

Assays:
MDA-MB-231 cells = test: MTT cell viability assay, MDA-MB-231; format: cell-based; settings: Homo sapiens; MDA-MB-231, MTT, high FOXC2 expression
Procedure: It was hypothesized that the specific binding of MC-1-F2 can lead to its specific cellular activity against cancer cells with high FOXC2 expression. This hypothesis was tested by evaluating MC-1-F2's cellular activity on cell lines with different FOXC2 expression levels: MCF-7, BT549, and MDA-MB-231. […] However, further studies are still underway. The specificity in cellular activity of MC-1-F2 was further evaluated in the form of a soft-agar colony forming assay to determine if MC-1-F2 was able to inhibit in vitro tumorigenicity of cancer cells in a FOXC2 expression-dependent manner. […] Further testing is underway in various breast cancer cell lines with different FOXC2 expression levels.
Cell viability was assessed by MTT (3-(4,5-Dimethylthiazol-2-yl)-2,5-Diphenyltetrazolium Bromide) assay. 1×10^4 cells were seeded on 48-well cell culture plate, and were incubated for at least 24 hours prior to drug treatment. The MTT reagent (Fisher Scientific) was added to the culture medium 3 hours prior to the end of compound incubation. The reaction took place in the 37° C. incubator with 5% CO2 for 3 hours. Cell culture medium was then removed from the wells. Cells with the insoluble purple formazan were lysed with DMSO for 10 mins at room temperature, 0.5 ml per well. The solution was aliquot to 96-well plate for absorbance reading at 570 nm using a plate reader.

full-length FOXC2 = target: T1, full-length FOXC2 (Homo sapiens, UniProt Q99958); test: ELISA-like binding assay, immobilized full-length FOXC2; settings: biotinylated compound, immobilized recombinant full-length FOXC2, Qdot655 fluorescence
T1 construct: human FOXC2 protein (amino acid residues 1-501) with a C-terminal 6 histidine tag; made in house; host or cells: E. coli BL21(DE3)
T1 sequence (Q99958 1-501): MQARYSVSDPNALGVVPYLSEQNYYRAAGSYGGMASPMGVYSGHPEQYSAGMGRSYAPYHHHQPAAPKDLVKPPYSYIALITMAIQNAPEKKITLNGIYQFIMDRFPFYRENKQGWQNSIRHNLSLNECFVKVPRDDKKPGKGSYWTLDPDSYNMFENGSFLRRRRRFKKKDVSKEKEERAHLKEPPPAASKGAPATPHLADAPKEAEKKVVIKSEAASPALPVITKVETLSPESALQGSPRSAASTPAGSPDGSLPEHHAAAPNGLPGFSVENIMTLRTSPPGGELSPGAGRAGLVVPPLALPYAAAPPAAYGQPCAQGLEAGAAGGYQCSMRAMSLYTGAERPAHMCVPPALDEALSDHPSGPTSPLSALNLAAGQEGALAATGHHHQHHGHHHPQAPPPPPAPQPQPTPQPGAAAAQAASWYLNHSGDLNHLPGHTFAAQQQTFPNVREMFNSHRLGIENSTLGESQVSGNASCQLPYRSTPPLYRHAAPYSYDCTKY
Procedure: The binding affinity of MC-1-F2 to full-length FOXC2 was determined using an ELISA-like binding assay. In this assay, varying concentrations of biotinylated MC-1-F2 or biotinylated MC-C (control; FIG. 12) were incubated in the wells with immobilized recombinant full-length FOXC2 or the DNA binding domain (DBD) of FOXC2 (FIG. 2A). After washing off unbound ligand, the wells were incubated with streptavidin-conjugated Qdot655, followed by fluorescence measurement of the wells using a plate reader. […] This is important for the specificity of MC-1-F2 to FOXC2 as several forkhead transcription factors share a very similar DNA-binding domain.
Clear bottom, black wall, 96 well plate (Corning) was coated with 1 μg/mL of full length FOXC2 or DNA binding domain (DBD) of FOXC2 protein in sensitizing buffer (0.621 g NaHCO3, 0.275 g Na2CO3 in 100 mL of water pH=9.5) overnight at 4° C. Wells were washed 3 times with 200 μL of wash buffer (lx PBS with 0.05% Tween-20). Wells were blocked with blocking buffer (1% BSA in 1×PBS with 0.05% Tween-20) for 1 hour at room temperature. 50 μL of serial dilutions of biotinylated compound in blocking buffer were added to each well and incubated for 1 hour at room temperature. Followed was the addition of […] of 20 nM of strepavidin-Qdot655 in blocking buffer for 1 hour at room temperature. […] Fluorescence was measured using a plate reader (Ex. 495, Em. 655).

FOXC2 = target: T2, FOXC2 (Homo sapiens, UniProt Q99958); test: Western blot of FOXC2 protein level and nuclear localization in MDA-MB-231; format: cell-based; settings: MDA-MB-231, 20 μM
T2 construct: endogenous in cells; host or cells: MDA-MB-231
T2 sequence (Q99958 1-501): T1 sequence (Q99958 1-501)
Text: As a transcription factor, FOXC2 needs to localize into the nucleus to promote the transcription of target genes. Therefore, a small molecule that blocks nuclear localization of FOXC2 is expected to inhibit EMT. […] Putative kinases that phosphorylate FOXC2 have been proposed (Werden et al., 2016; Ivanov et al., 2013; Golden & Cantley, 2014). It is possible that MC-1-F2 disrupts the protein-protein interaction between FOXC2 and its kinase, resulting in the decease of FOXC2 nuclear localization. Investigation into the exact mechanism by which MC-1-F2 inhibits FOXC2 phosphorylation and nuclear localization is underway.
50 μg of total protein per sample was incubated with 4× loading buffer at 100° C. for 5 min. Protein samples were then loaded into a polyacrylamide gel and subjected to SDS-PAGE. Resolved proteins were then transferred by a wet transfer method to a PVDF membrane at 100 V for 1 hour using a BioRad Mini Trans-Blot Electrophoresis Transfer Cell. Upon the completion of wet transfer, the membrane was then blocked with 5% (w/v) fat-free milk in 1× Tris-buffered saline/0.1% (v/v) Tween-20 (TBS-T) for at least 1 hour. Then incubated with the respective primary antibodies diluted in 5% BSA in 1×TBST at 4° C. overnight. The following day exposed to 1:1000 dilution of anti-mouse or anti-rabbit HRP-conjugated secondary antibodies in 5% (w/v) fat-free milk in 1×TBS-T for 1 hour at room temperature. The probed proteins were then detected for chemiluminescent signal using SuperSignal Chemiluminescent Substrate (PIERCE). Pierce antibodies: B-actin, and all other antibodies used are from cell signaling. MG132 treatment was added to cells (0.5 μM) for 1-hour incubation prior to compound treatment, no more than 24 hours total exceeded during MG132 incubation.

In the case of `N=C(N)NCCCCNc1nc(Nc2ccc(Oc3ccccc3)cc2)nc(N2CCN(c3nc(N)nc(Nc4ccc(N5CCOCC5)cc4)n3)CC2)n1` [MC-1-F2], the EC50 (MDA-MB-231 cells) is reported as about 20 µM, the Kd (full-length FOXC2) is reported as 26 µM and the FOXC2 protein level (FOXC2; 24 hours, absence of MG132) is reported as “decrease in FOXC2 protein level”. For the same compound, the “FOXC2 protein level in presence of MG132” value (FOXC2; 24 hours, with 26S proteasome inhibitor MG132) was “prevented by incubating the cells with a 26S proteasome inhibitor, MG132” and the “nuclear localization of FOXC2” value (FOXC2; 48 hours, cytosolic and nuclear fractions) was “decrease in nuclear localization of FOXC2”.
